The species named for experiment [1] is Canis lupus familiaris. Description: Binding affinity to hound bone powder assessed as reduction in bound compound level at 50 uM after 16 hrs by NMR spectroscopic analysis relative to control. On the set-up: scale not given: the % may be the effect or the level left.
The species named for experiment [2] is Canis lupus familiaris. Description: Binding affinity to hound bone powder assessed as change in vibration bands at 20 to 50 uM after 1 hr by FTIR analysis.
Experiment [3] is filed under the species Canis lupus familiaris. Description: Binding affinity to hound bone powder assessed as reduction in bound compound level at 50 uM after 16 hrs by NMR spectroscopic analysis relative to alendronate. On the set-up: scale not given: the % may be the effect or the level left.
Experiment [4] is filed under the species Canis lupus familiaris. Description: […] hound bone beams assessed as energy to fracture at 2 uM by 4 point bending analysis relative to control.
For experiment [5], the species on record is Canis lupus familiaris. Nature of the experiment: Binding affinity to hound bone powder assessed as reduction in bound compound level at 50 uM after 1 hr by NMR spectroscopic analysis relative to alendronate. On the set-up: scale not given: the % may be the effect or the level left.
Experiment [6] can be described thus: Binding affinity to synthetic ceramic hydroxyapatite type 1 assessed as reduction in bound compound level at 50 uM after 16 hrs by NMR spectroscopic analysis relative to control. Details: scale not given: the % may be the effect or the level left.
Experiment [7] in a line: Binding affinity to synthetic ceramic hydroxyapatite type 1 assessed as reduction in bound compound level at 50 uM after 1 hr by NMR spectroscopic analysis relative to alendronate. Details: scale not given: the % may be the effect or the level left.
Experiment [8] is filed under the species Canis lupus familiaris. Description: Binding affinity to hound bone powder assessed as reduction in bound compound level at 50 uM after 1 hr by NMR spectroscopic analysis relative to control. On the set-up: scale not given: the % may be the effect or the level left.
Experiment [9] can be described thus: Binding affinity to synthetic ceramic hydroxyapatite type 1 assessed as reduction in bound compound level at 50 uM after 1 hr by NMR spectroscopic analysis relative to control. Details: scale not given: the % may be the effect or the level left.
Experiment [10] in a line: Binding affinity to synthetic ceramic hydroxyapatite type 1 assessed as reduction in bound compound level at 50 uM after 16 hrs by NMR spectroscopic analysis relative to alendronate. Details: scale not given: the % may be the effect or the level left.
Experiment [11] addresses Collagen alpha-1(I) chain (Canis lupus familiaris) (UniProt Q9XSJ7). Description: Binding affinity to hound collagen 1a1 (unknown origin) at 50 uM after 1 8 hrs by 1H NMR spectroscopic analysis.
The species named for experiment [12] is Canis lupus familiaris. Description: Binding affinity to hound bone powder at 50 uM after 1 to 8 hrs by 1H NMR spectroscopic analysis.
Another experiment addresses T1, Estrogen receptor (Homo sapiens, UniProt P03372).
T1 sequence (P03372 whole entry): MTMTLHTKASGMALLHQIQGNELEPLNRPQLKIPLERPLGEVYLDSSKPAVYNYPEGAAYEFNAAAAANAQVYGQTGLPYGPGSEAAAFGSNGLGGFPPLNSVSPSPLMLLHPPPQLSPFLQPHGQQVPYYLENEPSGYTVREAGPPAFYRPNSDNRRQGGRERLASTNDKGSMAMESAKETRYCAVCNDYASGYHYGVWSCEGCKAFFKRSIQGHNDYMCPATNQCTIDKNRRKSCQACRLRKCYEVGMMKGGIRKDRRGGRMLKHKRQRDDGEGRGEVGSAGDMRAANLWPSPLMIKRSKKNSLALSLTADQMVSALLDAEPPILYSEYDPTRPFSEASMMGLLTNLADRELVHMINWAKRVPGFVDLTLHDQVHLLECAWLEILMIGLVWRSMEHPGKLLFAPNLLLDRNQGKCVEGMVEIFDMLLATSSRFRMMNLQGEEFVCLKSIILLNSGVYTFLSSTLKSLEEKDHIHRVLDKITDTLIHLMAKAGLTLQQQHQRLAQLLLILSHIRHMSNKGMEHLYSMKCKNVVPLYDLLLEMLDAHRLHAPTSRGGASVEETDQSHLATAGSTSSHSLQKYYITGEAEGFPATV
Nature of the experiment: Binding affinity to ERalpha (unknown origin).

The next experiment deals with Estrogen receptor beta (Homo sapiens, UniProt Q92731). Description: Binding affinity to ERbeta (unknown origin).
Estrogen receptor beta, sequence (Q92731 whole entry): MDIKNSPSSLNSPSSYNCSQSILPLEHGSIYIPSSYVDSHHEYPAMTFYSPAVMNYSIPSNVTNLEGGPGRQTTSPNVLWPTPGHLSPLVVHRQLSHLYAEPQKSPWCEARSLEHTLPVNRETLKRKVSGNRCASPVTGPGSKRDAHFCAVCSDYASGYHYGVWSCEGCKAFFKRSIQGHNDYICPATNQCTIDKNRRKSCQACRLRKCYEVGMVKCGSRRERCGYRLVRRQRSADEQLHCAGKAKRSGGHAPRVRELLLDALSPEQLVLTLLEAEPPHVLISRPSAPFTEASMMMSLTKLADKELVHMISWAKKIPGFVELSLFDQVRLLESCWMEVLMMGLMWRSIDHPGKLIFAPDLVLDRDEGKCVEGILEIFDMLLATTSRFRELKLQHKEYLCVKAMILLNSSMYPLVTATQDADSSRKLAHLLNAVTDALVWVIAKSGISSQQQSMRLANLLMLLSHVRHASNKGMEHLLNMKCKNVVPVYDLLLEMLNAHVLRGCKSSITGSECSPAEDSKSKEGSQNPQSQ

Calls of active or inactive are those of the source. No cut-off for these calls is given here. Bounds are passed on as bounds.

Collagen alpha-1(I) chain (Canis lupus familiaris), sequence (Q9XSJ7 whole entry): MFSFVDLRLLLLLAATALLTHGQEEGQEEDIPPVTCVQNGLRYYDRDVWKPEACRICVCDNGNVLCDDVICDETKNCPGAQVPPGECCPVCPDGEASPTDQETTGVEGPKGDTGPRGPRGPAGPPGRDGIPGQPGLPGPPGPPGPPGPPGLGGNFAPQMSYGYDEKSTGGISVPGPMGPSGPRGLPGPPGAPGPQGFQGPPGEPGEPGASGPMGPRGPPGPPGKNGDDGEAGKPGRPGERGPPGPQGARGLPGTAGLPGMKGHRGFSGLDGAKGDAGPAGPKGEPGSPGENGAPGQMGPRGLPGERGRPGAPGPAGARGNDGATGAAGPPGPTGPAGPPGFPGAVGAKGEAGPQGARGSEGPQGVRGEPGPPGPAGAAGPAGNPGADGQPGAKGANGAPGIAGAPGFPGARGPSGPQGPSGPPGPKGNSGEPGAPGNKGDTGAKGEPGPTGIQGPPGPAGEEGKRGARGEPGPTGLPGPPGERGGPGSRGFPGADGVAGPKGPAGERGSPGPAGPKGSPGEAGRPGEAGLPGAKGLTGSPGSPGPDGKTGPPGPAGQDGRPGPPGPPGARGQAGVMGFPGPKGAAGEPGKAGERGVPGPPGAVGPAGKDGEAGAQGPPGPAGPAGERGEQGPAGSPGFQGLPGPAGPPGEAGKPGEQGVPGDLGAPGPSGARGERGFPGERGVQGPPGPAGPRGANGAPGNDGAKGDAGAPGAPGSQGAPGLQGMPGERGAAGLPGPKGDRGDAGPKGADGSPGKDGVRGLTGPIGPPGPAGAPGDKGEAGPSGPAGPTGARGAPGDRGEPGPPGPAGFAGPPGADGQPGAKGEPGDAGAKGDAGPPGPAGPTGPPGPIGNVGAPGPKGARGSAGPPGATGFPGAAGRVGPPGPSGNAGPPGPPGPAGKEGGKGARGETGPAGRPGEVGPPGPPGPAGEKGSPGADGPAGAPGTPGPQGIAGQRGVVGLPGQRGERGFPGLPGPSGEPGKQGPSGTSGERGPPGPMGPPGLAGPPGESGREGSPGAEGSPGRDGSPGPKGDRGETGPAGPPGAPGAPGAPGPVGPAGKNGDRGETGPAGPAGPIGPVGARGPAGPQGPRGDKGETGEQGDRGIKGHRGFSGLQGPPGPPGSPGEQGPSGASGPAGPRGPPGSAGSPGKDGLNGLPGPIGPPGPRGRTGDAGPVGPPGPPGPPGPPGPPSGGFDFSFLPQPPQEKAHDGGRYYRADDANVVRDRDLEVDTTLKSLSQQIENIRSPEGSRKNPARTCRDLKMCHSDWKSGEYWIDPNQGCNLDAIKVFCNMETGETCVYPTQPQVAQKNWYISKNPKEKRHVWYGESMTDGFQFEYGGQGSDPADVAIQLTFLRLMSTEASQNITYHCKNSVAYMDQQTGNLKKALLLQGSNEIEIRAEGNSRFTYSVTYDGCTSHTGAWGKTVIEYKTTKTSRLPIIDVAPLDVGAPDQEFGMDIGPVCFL

For `O=C(c1ccc(OCCN2CCCCC2)cc1)c1c(-c2ccc(O)cc2)sc2cc(O)ccc12`, the Activity in the experiment listed under Canis lupus familiaris [1] is 99%; in the experiment listed under Canis lupus familiaris [3] it was 104%; in the experiment filed under Canis lupus familiaris [4] it was 16%; in the experiment listed under Canis lupus familiaris [5] it was 54.2%; in experiment [6], -206%; in [7], -232%. Further, the Activity in the experiment listed under Canis lupus familiaris [8] was 54.2%; in [9], -232%; in experiment [10], -207%. For the same compound, the result (in the experiment filed under Canis lupus familiaris [2]; in [11]; in the experiment listed under Canis lupus familiaris [12]) was Active.

What is called Ki is a dissociation constant, usually derived from enzyme kinetics or from competition with a known ligand. For `O=C(c1ccc(OCCN2CCCCC2)cc1)c1c(-c2ccccc2)sc2ccccc12`, the Ki at Estrogen receptor and at Estrogen receptor beta was over 10 µM each time. Besides, the Activity is 89% in the experiment listed under Canis lupus familiaris [1]; 93.1% in the experiment filed under Canis lupus familiaris [3]; -132% in the experiment filed under Canis lupus familiaris [5]; -237% in experiment [6]; -422% in experiment [7]; -132% in the experiment listed under Canis lupus familiaris [8]. The Activity is -422% in experiment [9] and -238% in experiment [10].

Turning to `COc1ccc(Nc2nc(NCc3ccco3)nc(N/N=C(\C)c3ccc(NC(C)=O)cc3)n2)cc1`, the Activity is -0.5% in the experiment filed under Canis lupus familiaris [1]; -0.5% in the experiment filed under Canis lupus familiaris [3]; 0.3% in the experiment listed under Canis lupus familiaris [5]; 4.1% in experiment [6]; 3.9% in [7]; 0.3% in the experiment filed under Canis lupus familiaris [8]. Moreover, the Activity in [9] came out at 3.9%; in [10], 4.1%.

With `O=C(c1ccc(O)cc1)c1c(-c2ccc(O)cc2)sc2cc(O)ccc12`, the Activity in the experiment filed under Canis lupus familiaris [1] was 34.1%; in the experiment filed under Canis lupus familiaris [3] it was 35.6%; in the experiment filed under Canis lupus familiaris [4] it was -36%; in the experiment filed under Canis lupus familiaris [5], 26.4%; in [6], 15.1%; in experiment [7] it was 13.3%. Moreover, the Activity came to 26.4% in the experiment filed under Canis lupus familiaris [8], 13.3% in experiment [9] and 15.1% in experiment [10]. Besides, the outcome (in [11]; in the experiment filed under Canis lupus familiaris [12]) was Active.

On to `C[C@]12CC[C@@H]3c4ccc(O)cc4CC[C@H]3[C@@H]1CC[C@@H]2O`, for which the Activity in the experiment listed under Canis lupus familiaris [1] amounted to 73.9%; in the experiment filed under Canis lupus familiaris [3], 77.4%; in the experiment filed under Canis lupus familiaris [5] it was 5.3%; in [6], 73%; in experiment [7] it was 57.1%; in the experiment listed under Canis lupus familiaris [8] it was 5.3%. Further, the Activity in [9] was 57.1%; in experiment [10], 73.2%.

Regarding `COc1ccc2c(C(=O)c3ccc(OCCN4CCCCC4)cc3)c(-c3ccc(O)cc3)sc2c1`, the Activity in the experiment listed under Canis lupus familiaris [1] is 73.9%; in the experiment listed under Canis lupus familiaris [3] it was 77.4%; in the experiment filed under Canis lupus familiaris [4] it was 25%; in the experiment listed under Canis lupus familiaris [5], 21%; in experiment [6], -286%; in experiment [7], -57.9%. The Activity in the experiment listed under Canis lupus familiaris [8] is 21%; in [9], -57.9%; in experiment [10], -287%. For the same compound, the outcome (in [11]; in the experiment filed under Canis lupus familiaris [12]) was Active.

Take `Oc1ccc(-c2cc3ccc(O)cc3s2)cc1` [RALOXIFENE CORE]: the Activity in the experiment filed under Canis lupus familiaris [1] was 46.4%; in the experiment filed under Canis lupus familiaris [3], 48.6%; in the experiment listed under Canis lupus familiaris [4] it was -75%; in the experiment listed under Canis lupus familiaris [5] it was 42.8%; in experiment [6] it was 11.7%; in [7] it was 22.3%. Moreover, the Activity is 42.8% in the experiment listed under Canis lupus familiaris [8], 22.3% in [9] and 11.7% in [10]. This compound showed a Ki at Estrogen receptor beta of 0.0023 µM.

On to `NCCCC(O)(P(=O)(O)O)P(=O)(O)O`, for which the Activity in the experiment filed under Canis lupus familiaris [1] turned out to be 95.6%; in experiment [6] it was 99.7%; in the experiment listed under Canis lupus familiaris [8], 41.1%; in [9] it was 100%.

For the origin of these results see ChEMBL document CHEMBL3751680 (Bioorg Med Chem, 2016).
